This is an account of results in patent publication US9833497B2, “Human originated EGF domain proteins and use of the same” (CHENGDU SOURCEBIO LIMITED-LIABILITY COMPANY, priority 2013, dated 2017).

Type in all cases: cell-based
In one assay the test system is Moraxella catarrhalis. The assay can be described thus: MIC against Gram-negative bacteria: Moraxella catarrhalis. Particulars: for MIC M. catarrhalis: two-fold serial dilution. An outline of the steps:
(§1)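 MIC = lowest concentration of recombinant protein showing no growth. Test proteins: purified human-derived EGF domain proteins, two-fold dilution series, three wells per concentration; inoculum 5×10^5 CFU/mL in LB; incubation 37° C with shaking at 175 rpm.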

The test system of the next assay is Serratia marcescens. The assay can be described thus: MIC against Gram-negative bacteria: Serratia marcescens. Particulars: for MIC S. marcescens: two-fold serial dilution. An outline of the steps:
as §1

A further assay relates to Proteus vulgaris. The assay can be described thus: MIC against Gram-negative bacteria: Proteus vulgaris. The settings on record: for MIC P. vulgaris: two-fold serial dilution. An outline of the steps: as §1
A further assay concerns E. coli DH5α. The assay can be described thus: Antibacterial activity: MIC and growth curve against E. coli DH5α in 96-well plate. The settings on record: minimal inhibitory concentration against E. coli DH5α; 96-well plate, 5×10^5 CFU/mL, 37° C., judged after 8 h. An outline of the steps:
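Log-phase DH5α (OD600 about 0.5, 37° C, 185 rpm in LB) was pelleted, resuspended in fresh LB and seeded at 5×10^5 CFU/mL with recombinant protein at 50, 25 and 12.5 μg/mL (two-fold series), in triplicate. Plates were shaken at 175 rpm, 37° C, and OD600 was read every 30 min. MIC was the lowest concentration with no growth.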

A further assay relates to Proteus mirabilis. The assay can be described thus: MIC against Gram-negative bacteria: Proteus mirabilis. The settings on record: for MIC P. mirabilis: two-fold serial dilution. An outline of the steps: as §1
In the next assay the test system is Enterobacter cloacae. The assay can be described thus: MIC against Gram-negative bacteria: Enterobacter cloacae. Particulars: for MIC E. cloacae: two-fold serial dilution. An outline of the steps:
as §1

The test system of the next assay is Pseudomonas aeruginosa. The assay can be described thus: MIC against Gram-negative bacteria: Pseudomonas aeruginosa. Particulars: for MIC P. aeruginosa: two-fold serial dilution. An outline of the steps:
as §1

The next assay relates to E. coli BL21. The assay can be described thus: MIC against Gram-negative bacteria: E. coli BL21. Particulars: for MIC E. coli BL21: two-fold serial dilution. An outline of the steps: as §1
In another assay the test system is Citrobacter diversus. As to the kind of experiment: MIC against Gram-negative bacteria: Citrobacter diversus. Particulars: for MIC C. diversus: two-fold serial dilution. An outline of the steps: as §1
In a further assay the test system is Aeromonas hydrophila. As to the kind of experiment: MIC against Gram-negative bacteria: Aeromonas hydrophila. Particulars: for MIC A. hydrophila: two-fold serial dilution. An outline of the steps: as §1
In another assay the test system is Klebsiella pneumonia. As to the kind of experiment: MIC against Gram-negative bacteria: Klebsiella pneumonia. The settings on record: for MIC K. pneumonia: two-fold serial dilution. An outline of the steps:
as §1

[1] abbreviates: 10 h cultivation at 37° C., 5×10^5 CFU/mL.

As a reminder, the MIC is the smallest concentration in the dilution series that meets the test's criterion for growth inhibition. A low value points to a more susceptible organism. As to “PRT1160 (DTEDCKSASCKNGTTSTHLRGYFFRKCVPGFKGTQCE; listed as Homo sapiens)”, in the assay on Moraxella catarrhalis (setting [1]), the “MIC M. catarrhalis” value amounted to 12.5 µg/mL. Also, the “MIC S. marcescens” value against Serratia marcescens (setting [1]) is 25 µg/mL. In addition, the “MIC P. vulgaris” value against Proteus vulgaris (setting [1]) turned out to be 12.5 µg/mL. In addition, the MIC against E. coli DH5α was 12.5 µg/mL. In addition, the “MIC P. mirabilis” value in the assay on Proteus mirabilis (setting [1]) is 25 µg/mL. The “MIC E. cloacae” value in the assay on Enterobacter cloacae (setting [1]) was 12.5 µg/mL. The “MIC P. aeruginosa” value against Pseudomonas aeruginosa (setting [1]) was determined as 12.5 µg/mL. The “MIC E. coli BL21” value against E. coli BL21 (setting [1]) was 25 µg/mL. The “MIC C. diversus” value against Citrobacter diversus (setting [1]) stood at 25 µg/mL. The “MIC A. hydrophila” value in the assay with Aeromonas hydrophila (setting [1]) was 12.5 µg/mL. Further, the “MIC K. pneumonia” value against Klebsiella pneumonia (setting [1]) turned out to be 25 µg/mL.
“PRT1002 (FPDPCQNAQLCQNGGSCQALLPAPLGLPSSPSPLTPSFLCTCLPGFTGERCQ; listed as Homo sapiens)”: the MIC turned out to be 12.5 µg/mL against Moraxella catarrhalis (M. catarrhalis, 10 h cultivation at 37° C.); 12.5 µg/mL in the assay on Serratia marcescens (S. marcescens, 10 h cultivation at 37° C.); 50 µg/mL against Proteus vulgaris (P. vulgaris, 10 h cultivation at 37° C.); 25 µg/mL with E. coli DH5α; 25 µg/mL with Proteus mirabilis (P. mirabilis, 10 h cultivation at 37° C.); 12.5 µg/mL in the assay on Enterobacter cloacae (E. cloacae, 10 h cultivation at 37° C.). In addition, the MIC in the assay on Pseudomonas aeruginosa (P. aeruginosa, 10 h cultivation at 37° C.) came out at 25 µg/mL; against E. coli BL21 (E. coli BL21, 10 h cultivation at 37° C.), 12.5 µg/mL; in the assay on Citrobacter diversus (C. diversus, 10 h cultivation at 37° C.) it was 25 µg/mL; in the assay on Aeromonas hydrophila (A. hydrophila, 10 h cultivation at 37° C.), 50 µg/mL; against Klebsiella pneumonia (K. pneumonia, 10 h cultivation at 37° C.) it was 50 µg/mL.
“PRT187 (KVDRCTSNPCANGGQCLNRGPSRMCRCRPGFTGTYCE; listed as Homo sapiens)”: the “MIC (μg/mL) M. catarrhalis” value in the assay on Moraxella catarrhalis (M. catarrhalis, 10 h cultivation at 37° C., 5×10^5 CFU/mL) worked out at 12.5 µg/mL. Moreover, in the assay with Serratia marcescens (S. marcescens, 10 h cultivation at 37° C., 5×10^5 CFU/mL), the “MIC (μg/mL) S. marcescens” value was determined as 25 µg/mL. In addition, the “MIC (μg/mL) P. vulgaris” value with Proteus vulgaris (P. vulgaris, 10 h cultivation at 37° C., 5×10^5 CFU/mL) was found to be 12.5 µg/mL. The MIC against E. coli DH5α stood at 25 µg/mL. Also, in the assay on Proteus mirabilis (P. mirabilis, 10 h cultivation at 37° C., 5×10^5 CFU/mL), the “MIC (μg/mL) P. mirabilis” value was determined as 25 µg/mL. For the same substance, the “MIC (μg/mL) E. cloacae” value in the assay with Enterobacter cloacae (E. cloacae, 10 h cultivation at 37° C., 5×10^5 CFU/mL) is 25 µg/mL. In the assay with Pseudomonas aeruginosa (P. aeruginosa, 10 h cultivation at 37° C., 5×10^5 CFU/mL), the “MIC (μg/mL) P. aeruginosa” value was 25 µg/mL. Also, the “MIC (μg/mL) E. coli BL21” value against E. coli BL21 (E. coli BL21, 10 h cultivation at 37° C., 5×10^5 CFU/mL) was 12.5 µg/mL. In addition, the “MIC (μg/mL) C. diversus” value in the assay with Citrobacter diversus (C. diversus, 10 h cultivation at 37° C., 5×10^5 CFU/mL) stood at 25 µg/mL. Moreover, in the assay on Aeromonas hydrophila (A. hydrophila, 10 h cultivation at 37° C., 5×10^5 CFU/mL), the “MIC (μg/mL) A. hydrophila” value amounted to 12.5 µg/mL. In addition, in the assay on Klebsiella pneumonia (K. pneumonia, 10 h cultivation at 37° C., 5×10^5 CFU/mL), the “MIC (μg/mL) K. pneumonia” value stood at 12.5 µg/mL.
For “PRT1177 (DANECEAKPCVNAKSCKNLIASYYCDCLPGWMGQNCD; listed as Homo sapiens)”, the “MIC M. catarrhalis” value in the assay with Moraxella catarrhalis (setting [1]) is 12.5 µg/mL. Moreover, the “MIC S. marcescens” value with Serratia marcescens (setting [1]) worked out at 25 µg/mL. Besides, in the assay on Proteus vulgaris (setting [1]), the “MIC P. vulgaris” value was 12.5 µg/mL. In the assay on E. coli DH5α, this substance gave an MIC of 50 µg/mL. In addition, the “MIC P. mirabilis” value against Proteus mirabilis (setting [1]) came to 50 µg/mL. Besides, the “MIC E. cloacae” value against Enterobacter cloacae (setting [1]) is 50 µg/mL. Further, the “MIC P. aeruginosa” value in the assay with Pseudomonas aeruginosa (setting [1]) was 50 µg/mL. Besides, the “MIC E. coli BL21” value against E. coli BL21 (setting [1]) amounted to 12.5 µg/mL. The “MIC C. diversus” value against Citrobacter diversus (setting [1]) stood at 50 µg/mL. Also, the “MIC A. hydrophila” value with Aeromonas hydrophila (setting [1]) came out at 12.5 µg/mL. Moreover, in the assay on Klebsiella pneumonia (setting [1]), the “MIC K. pneumonia” value was 12.5 µg/mL.
Consider “PRT1217 (EITACFPNPCRNGGSCDPIGNTFICNCKAGLTGVTCE; listed as Homo sapiens)”, for which the “MIC against M. catarrhalis” value against Moraxella catarrhalis (Moraxella catarrhalis, 96-well plate, 5×10^5 CFU/mL, 37° C., 10 h) worked out at 12.5 µg/mL. For the same substance, the “MIC against S. marcescens” value in the assay with Serratia marcescens (Serratia marcescens, 96-well plate, 5×10^5 CFU/mL, 37° C., 10 h) turned out to be 12.5 µg/mL. Further, in the assay on Proteus vulgaris (Proteus vulgaris, 96-well plate, 5×10^5 CFU/mL, 37° C., 10 h), the “MIC against P. vulgaris” value turned out to be 25 µg/mL. In the assay with E. coli DH5α, this substance had an MIC of 50 µg/mL. In addition, the “MIC against P. mirabilis” value in the assay on Proteus mirabilis (Proteus mirabilis, 96-well plate, 5×10^5 CFU/mL, 37° C., 10 h) is 50 µg/mL. Moreover, in the assay with Enterobacter cloacae (Enterobacter cloacae, 96-well plate, 5×10^5 CFU/mL, 37° C., 10 h), the “MIC against E. cloacae” value was 25 µg/mL. Further, the “MIC against P. aeruginosa” value in the assay on Pseudomonas aeruginosa (Pseudomonas aeruginosa, 96-well plate, 5×10^5 CFU/mL, 37° C., 10 h) is 50 µg/mL. Further, the “MIC against E. coli BL21” value against E. coli BL21 (E. coli BL21, 96-well plate, 5×10^5 CFU/mL, 37° C., 10 h) is 12.5 µg/mL. The “MIC against C. diversus” value in the assay on Citrobacter diversus (Citrobacter diversus, 96-well plate, 5×10^5 CFU/mL, 37° C., 10 h) stood at 25 µg/mL. Moreover, in the assay with Aeromonas hydrophila (Aeromonas hydrophila, 96-well plate, 5×10^5 CFU/mL, 37° C., 10 h), the “MIC against A. hydrophila” value was 50 µg/mL. Besides, the “MIC against K. pneumonia” value against Klebsiella pneumonia (Klebsiella pneumonia, 96-well plate, 5×10^5 CFU/mL, 37° C., 10 h) came to 12.5 µg/mL.
